The record followed here is patent US8865967B2 (priority 2010, dated 2014).

What all share (format): cell-based
Assay [1] deals with Colletotrichum graminicola (CGR; isolate Carroll-IA-99). The settings on record: for IC50 (ppm) High Salt Cgr: high salt: 1/2x liquid media plus 1 mM calcium chloride, 50 mM potassium chloride, Table 1; for IC50 (ppm) Low Salt Cgr: low salt: 1/8x Czapek-Dox broth plus 0.25 mM calcium chloride, 12.5 mM potassium chloride; for Antifungal activity (IC50 in ppm) against C. graminicola under high salt conditions: Table 2.

Assay [2] concerns Fusarium graminearum (FGR; isolate 73B ISU). The note with it: for IC50 (ppm) High Salt Fgr: high salt: 1/2x liquid media plus 1 mM calcium chloride, 50 mM potassium chloride; for IC50 (ppm) Low Salt Fgr: low salt: 1/8x potato dextrose broth plus 0.25 mM calcium chloride, 12.5 mM potassium chloride.
Assay [3] concerns Fusarium verticillioides (FVE).
For a further assay, the system named is Diplodia maydis (DMA). The note with it: for IC50 (ppm) High Salt Dma: high salt: 1/2x liquid media plus 1 mM calcium chloride, 50 mM potassium chloride; for IC50 (ppm) Low Salt Dma: low salt: 1/8x potato dextrose broth plus 0.25 mM calcium chloride, 12.5 mM potassium chloride.

Consider “PP-PDF1-2CF-10F3: Pp-PDF1 variant from second shuffling round (RVCTKPSKFFRGLCVSDRNCTNACRKEGLPTGECKSKGFFNSVCVCKKPC; Synthetic sequence obtained from DNA shuffling of a plant sequence.)”, for which, in assay [1], the “IC50 (ppm) High Salt Cgr” value amounted to 0.6 ppm and the “IC50 (ppm) Low Salt Cgr” value was found to be 1.5 ppm. Further, in assay [2], the “IC50 (ppm) High Salt Fgr” value is given as 100 ppm and the “IC50 (ppm) Low Salt Fgr” value is on record as 15 ppm. Moreover, in assay [3], the “IC50 (ppm) High Salt Fve” value worked out at 200 ppm and the “IC50 (ppm) Low Salt Fve” value came out at 30 ppm. For the same substance, in the assay with Diplodia maydis (DMA), the “IC50 (ppm) High Salt Dma” value is given as 25 ppm and the “IC50 (ppm) Low Salt Dma” value is listed as 15 ppm.
Regarding “Pp-PDF1-3CA-1 E6: Pp-PDF1 variant from third shuffling round (RVCTKPSKFYRGLCVSDRDCTNACRKEGLPTGFCQSKGFFNSVCVCKKPC; Synthetic sequence obtained from DNA shuffling of a plant sequence.)”, the “IC50 (ppm) High Salt Cgr” value in assay [1] was found to be 0.6 ppm. Moreover, the “IC50 (ppm) High Salt Fgr” value in assay [2] is “^~100 ppm”.
For the substance “PP-PDF1-1F-7H6: Pp-PDF1 variant from first shuffling round (RVCEKPSKFFKGMCVRDRDCTVACKKEGLATGFCQKKGFFNFVCVCKKPC; Synthetic sequence obtained from DNA shuffling of a plant sequence.)”, the “IC50 (ppm) High Salt Cgr” value in assay [1] is reported as 10 ppm. In assay [2], the “IC50 (ppm) High Salt Fgr” value was 3 ppm. In assay [3], the “IC50 (ppm) High Salt Fve” value is reported as above 200 ppm. Moreover, the “IC50 (ppm) High Salt Dma” value with Diplodia maydis (DMA) came to 200 ppm.
On to “PP-PDF1-1F-12H3: Pp-PDF1 variant from first shuffling round (RVCTKPSKFFKGLCVSDDDCAHACRKEGLATGKCQKKGFFNRVCVCKKPC; Synthetic sequence obtained from DNA shuffling of a plant sequence.)”, for which, in assay [1], the “IC50 (ppm) High Salt Cgr” value was determined as 10 ppm. Moreover, in assay [2], the “IC50 (ppm) High Salt Fgr” value is given as 3 ppm. The “IC50 (ppm) High Salt Fve” value in assay [3] is listed as above 200 ppm. Moreover, the “IC50 (ppm) High Salt Dma” value in the assay with Diplodia maydis (DMA) is 200 ppm.
Consider “Pp-PDF1-1F-1C5: Pp-PDF1 variant from first shuffling round (KVCTKPSKFFKGMCVRDRDCTNACRKEGLASGFCQKKGFFNFVCVCRKPC; Synthetic sequence obtained from DNA shuffling of a plant sequence.)”, for which the “IC50 (ppm) High Salt Cgr” value in assay [1] is listed as 10 ppm. For the same substance, the “IC50 (ppm) High Salt Fgr” value in assay [2] came out at 1.5 ppm. Also, the “IC50 (ppm) High Salt Fve” value in assay [3] is reported as above 200 ppm. In addition, the “IC50 (ppm) High Salt Dma” value in the assay with Diplodia maydis (DMA) is 50 ppm.
For “Pp-PDF1-4CB-6E9: Pp-PDF1 variant from fourth shuffling round (RVCTKPSKFFKGLCISDRQCTNACRKEGLPTGECQPKGFFNSVCVCRKPC; Synthetic sequence obtained from DNA shuffling of a plant sequence.)”, in assay [1], the “IC50 (ppm) High Salt Cgr” value is given as 0.25 ppm and the “IC50 (ppm) Low Salt Cgr” value is on record as 0.4 ppm. Besides, in assay [2], the “IC50 (ppm) High Salt Fgr” value is on record as 150 ppm. In assay [3], the “IC50 (ppm) High Salt Fve” value was above 200 ppm. Moreover, the “IC50 (ppm) High Salt Dma” value in the assay with Diplodia maydis (DMA) came out at 100 ppm.
Consider “Pp-PDF1: Picramnia pentandra plant defensin, parent polypeptide used in the DNA shuffling (KVCTKPSKFFKGLCGADRDCTVACKKEGLATGFCQKKGFFNFVCVCRKPC; listed as Picramnia pentandra) [reference compound]”, for which, in assay [1], the “Antifungal activity (IC50 in ppm) against C. graminicola under high salt conditions” value is given as 15 ppm, the “IC50 (ppm) High Salt Cgr” value turned out to be 15 ppm and the “IC50 (ppm) Low Salt Cgr” value is 3 ppm. In addition, in assay [2], the “IC50 (ppm) High Salt Fgr” value is 5 ppm and the “IC50 (ppm) Low Salt Fgr” value came out at 2 ppm. In addition, in assay [3], the “IC50 (ppm) High Salt Fve” value is listed as 50 ppm and the “IC50 (ppm) Low Salt Fve” value came to 2 ppm. In the assay with Diplodia maydis (DMA), the “IC50 (ppm) High Salt Dma” value turned out to be 50 ppm and the “IC50 (ppm) Low Salt Dma” value came to 7.5 ppm.
For the substance “Pp-PDF1-2CE-4A7: Pp-PDF1 variant from second shuffling round (RVCTKPSKFFKGLCVSDNNCTHACRTEGLPIGFCQSKGFFNSVCVCKKPC; Synthetic sequence obtained from DNA shuffling of a plant sequence.)”, in assay [1], the “IC50 (ppm) High Salt Cgr” value amounted to 0.8 ppm. In addition, the “IC50 (ppm) High Salt Fgr” value in assay [2] was 5.6 ppm. In addition, in assay [3], the “IC50 (ppm) High Salt Fve” value amounted to 200 ppm. The “IC50 (ppm) High Salt Dma” value with Diplodia maydis (DMA) was determined as 25 ppm.
Take “Pp-PDF1-4CB-6E6: Pp-PDF1 variant from fourth shuffling round (RVCTKPSKFYKGLCISDRDCTNACRKEGLPIGFCKSKGFFNSVCVCRKPC; Synthetic sequence obtained from DNA shuffling of a plant sequence.)”: in assay [1], the “IC50 (ppm) High Salt Cgr” value is on record as 0.25 ppm and the “IC50 (ppm) Low Salt Cgr” value amounted to 0.25 ppm. Besides, in assay [2], the “IC50 (ppm) High Salt Fgr” value is 150 ppm. Further, in assay [3], the “IC50 (ppm) High Salt Fve” value is on record as above 200 ppm. Moreover, the “IC50 (ppm) High Salt Dma” value with Diplodia maydis (DMA) is 100 ppm.
For the substance “Pp-PDF1-2CA-1H4: Pp-PDF1 variant from second shuffling round (RVCRKPSKFFKGLCLSDRDCTNACRKEGLATGECQSKGFFNSVCVCEKPC; Synthetic sequence obtained from DNA shuffling of a plant sequence.)”, the “IC50 (ppm) High Salt Cgr” value in assay [1] is reported as 1 ppm.
Turning to “Pp-PDF1-3CA-2D3: Pp-PDF1 variant from third shuffling round (RVCTKPSKFFRGLCVSDNDCTNACRKEGLPTGFCQSKGFFNSVCVCKKPC; Synthetic sequence obtained from DNA shuffling of a plant sequence.)”, in assay [1], the “IC50 (ppm) High Salt Cgr” value came to 0.8 ppm and the “IC50 (ppm) Low Salt Cgr” value was determined as 0.3 ppm. In addition, in assay [2], the “IC50 (ppm) High Salt Fgr” value is “^~100 ppm” and the “IC50 (ppm) Low Salt Fgr” value was 15 ppm. In assay [3], the “IC50 (ppm) High Salt Fve” value turned out to be 200 ppm and the “IC50 (ppm) Low Salt Fve” value worked out at 30 ppm. In the assay on Diplodia maydis (DMA), the “IC50 (ppm) High Salt Dma” value was determined as 25 ppm and the “IC50 (ppm) Low Salt Dma” value came out at 6 ppm.
For the substance “Pp-PDF1-1C-6D3: Pp-PDF1 variant from first shuffling round (RVCEKPSKFFKGLCVRDRDCAVACKKEGLASGFCQSKGFFNSVCVCKKPC; Synthetic sequence obtained from DNA shuffling of a plant sequence.)”, in assay [1], the “IC50 (ppm) High Salt Cgr” value was determined as 12 ppm and the “IC50 (ppm) Low Salt Cgr” value was found to be 0.6 ppm. The “IC50 (ppm) Low Salt Fgr” value in assay [2] is recorded as 4.5 ppm.
For the substance “Pp-PDF1 2CA 5H4: Pp-PDF1 variant from second shuffling round (RVCKKPSKFFKGLCLSDRDCTNACRKEGLATGECQSKGFFNSVCVCEKPC; Synthetic sequence obtained from DNA shuffling of a plant sequence.)”, the “IC50 (ppm) High Salt Cgr” value in assay [1] was 1 ppm.
On the same count and under the same terms, to “Pp-PDF1-2CA-1A6: Pp-PDF1 variant from second shuffling round (RVCKKPSKFFKGLCLSDRDCTNACRKEGLATGECQSKGFFNSVCVCRKPC; Synthetic sequence obtained from DNA shuffling of a plant sequence.)” belongs 1 ppm.
As to “Pp-PDF1 (C2B5): Pp-PDF1 variant identified by DNA shuffling (RVCEKPSKFFKGMCVSDRNCTNACRKEGLPTGFCQSKGFFNSVCVCKKPC; Synthetic sequence obtained from DNA shuffling of a plant sequence.)”, the “Antifungal activity (IC50 in ppm) against C. graminicola under high salt conditions” value in assay [1] amounted to 0.8 ppm.
